Test results as given in the NIST ThermoML archive (doi:10.1021/je100208e).
Numbers after ± are expanded uncertainties.

Experiments:
[1] = for vapor or sublimation pressure: Knudsen effusion; for Normal melting temperature: DTA
[2] = Molar enthalpy of transition or fusion; details: Crystal; DSC

**Q.** Which results are given for c1ccc2cc3ccccc3cc2c1 [anthracene]?
**A.** vapor or sublimation pressure ([1]; 300 K, Crystal): 1.192e-06 ± 7e-08 kPa; vapor or sublimation pressure ([1]; 305 K, Crystal): 2.257e-06 ± 1.2e-07 kPa; vapor or sublimation pressure ([1]; 310 K, Crystal): 4.186e-06 ± 2.2e-07 kPa; vapor or sublimation pressure ([1]; 315 K, Crystal): 7.613e-06 ± 3.9e-07 kPa; vapor or sublimation pressure ([1]; 320 K, Crystal): 1.359e-05 ± 6.9e-07 kPa; vapor or sublimation pressure ([1]; 325 K, Crystal): 2.383e-05 ± 1.2e-06 kPa; vapor or sublimation pressure ([1]; 330 K, Crystal): 4.109e-05 ± 2.1e-06 kPa; vapor or sublimation pressure ([1]; 335 K, Crystal): 6.969e-05 ± 3.5e-06 kPa; vapor or sublimation pressure ([1]; 340 K, Crystal): 0.0001164 ± 5.8e-06 kPa; vapor or sublimation pressure ([1]; 345 K, Crystal): 0.0001915 ± 9.6e-06 kPa; vapor or sublimation pressure ([1]; 350 K, Crystal): 0.0003107 ± 1.6e-05 kPa; vapor or sublimation pressure ([1]; 355 K, Crystal): 0.0004972 ± 2.5e-05 kPa; vapor or sublimation pressure ([1]; 360 K, Crystal): 0.0007852 ± 3.9e-05 kPa; vapor or sublimation pressure ([1]; 365 K, Crystal): 0.001225 ± 6.1e-05 kPa; vapor or sublimation pressure ([1]; 370 K, Crystal): 0.001888 ± 9.4e-05 kPa; vapor or sublimation pressure ([1]; 373 K, Crystal): 0.002433 ± 0.00012 kPa; Normal melting temperature ([1]; Crystal): 217 ± 1 °C; Molar enthalpy of transition or fusion [2]: 6.65 ± 0.454 kcal/mol

**Q.** Which results are given for c1cc2ccc3cccc4ccc(c1)c2c34 [pyrene]?
**A.** vapor or sublimation pressure ([1]; 315 K, Crystal 1): 4.79e-06 ± 2.5e-07 kPa; vapor or sublimation pressure ([1]; 320 K, Crystal 1): 8.55e-06 ± 4.4e-07 kPa; vapor or sublimation pressure ([1]; 325 K, Crystal 1): 1.499e-05 ± 7.6e-07 kPa; vapor or sublimation pressure ([1]; 330 K, Crystal 1): 2.584e-05 ± 1.3e-06 kPa; vapor or sublimation pressure ([1]; 335 K, Crystal 1): 4.382e-05 ± 2.2e-06 kPa; vapor or sublimation pressure ([1]; 340 K, Crystal 1): 7.317e-05 ± 3.7e-06 kPa; vapor or sublimation pressure ([1]; 345 K, Crystal 1): 0.0001204 ± 6e-06 kPa; vapor or sublimation pressure ([1]; 350 K, Crystal 1): 0.0001952 ± 9.8e-06 kPa; vapor or sublimation pressure ([1]; 355 K, Crystal 1): 0.0003124 ± 1.6e-05 kPa; vapor or sublimation pressure ([1]; 360 K, Crystal 1): 0.0004933 ± 2.5e-05 kPa; vapor or sublimation pressure ([1]; 365 K, Crystal 1): 0.0007693 ± 3.9e-05 kPa; vapor or sublimation pressure ([1]; 370 K, Crystal 1): 0.001185 ± 5.9e-05 kPa; vapor or sublimation pressure ([1]; 375 K, Crystal 1): 0.001806 ± 9.1e-05 kPa; vapor or sublimation pressure ([1]; 378 K, Crystal 1): 0.002312 ± 0.00012 kPa; Normal melting temperature ([1]; Crystal): 151 ± 1 °C; Molar enthalpy of transition or fusion [2]: 3.87 ± 0.263 kcal/mol
